Type in all cases: biochemical
For experiment [1], the target named is T1, HDAC6 (Homo sapiens, UniProt Q9UBN7).
T1 construct: made in house
T1 sequence (Q9UBN7 1-1215): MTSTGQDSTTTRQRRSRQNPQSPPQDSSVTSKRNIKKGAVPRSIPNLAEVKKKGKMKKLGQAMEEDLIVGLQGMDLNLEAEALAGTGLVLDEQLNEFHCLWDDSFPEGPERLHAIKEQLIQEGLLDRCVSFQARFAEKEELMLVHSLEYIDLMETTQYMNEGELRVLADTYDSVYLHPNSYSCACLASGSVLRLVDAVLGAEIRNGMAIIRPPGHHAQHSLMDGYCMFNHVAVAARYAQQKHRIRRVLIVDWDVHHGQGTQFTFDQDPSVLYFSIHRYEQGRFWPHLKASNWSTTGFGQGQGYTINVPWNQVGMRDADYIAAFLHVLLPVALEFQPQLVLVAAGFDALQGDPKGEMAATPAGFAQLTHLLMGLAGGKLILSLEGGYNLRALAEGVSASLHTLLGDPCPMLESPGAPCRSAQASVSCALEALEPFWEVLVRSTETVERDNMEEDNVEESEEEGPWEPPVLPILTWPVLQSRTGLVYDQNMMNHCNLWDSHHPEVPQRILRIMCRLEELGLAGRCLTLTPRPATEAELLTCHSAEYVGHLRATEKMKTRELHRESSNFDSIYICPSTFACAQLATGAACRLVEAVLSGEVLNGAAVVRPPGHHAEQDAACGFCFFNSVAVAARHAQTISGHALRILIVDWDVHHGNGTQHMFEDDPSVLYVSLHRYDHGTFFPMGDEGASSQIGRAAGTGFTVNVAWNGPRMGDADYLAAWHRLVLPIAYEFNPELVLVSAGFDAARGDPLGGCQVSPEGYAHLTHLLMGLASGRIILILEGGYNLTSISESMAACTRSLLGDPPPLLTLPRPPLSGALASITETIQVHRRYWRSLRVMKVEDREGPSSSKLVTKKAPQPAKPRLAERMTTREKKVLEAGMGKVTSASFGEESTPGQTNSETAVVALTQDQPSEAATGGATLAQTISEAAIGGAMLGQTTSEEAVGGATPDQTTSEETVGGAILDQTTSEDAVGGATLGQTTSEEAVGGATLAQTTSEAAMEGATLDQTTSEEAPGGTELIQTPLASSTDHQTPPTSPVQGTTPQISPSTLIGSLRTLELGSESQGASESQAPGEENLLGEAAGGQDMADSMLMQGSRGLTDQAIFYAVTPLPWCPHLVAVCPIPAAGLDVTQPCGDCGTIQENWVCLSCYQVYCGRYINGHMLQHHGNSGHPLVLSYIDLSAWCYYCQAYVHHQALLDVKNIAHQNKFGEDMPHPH
Kind of experiment: HDAC6 inhibition (HDAC subtype panel).

For experiment [2], the target named is T2, human HDAC11 (Homo sapiens, UniProt Q96DB2).
T2 construct: made in house
T2 sequence (Q96DB2 1-347): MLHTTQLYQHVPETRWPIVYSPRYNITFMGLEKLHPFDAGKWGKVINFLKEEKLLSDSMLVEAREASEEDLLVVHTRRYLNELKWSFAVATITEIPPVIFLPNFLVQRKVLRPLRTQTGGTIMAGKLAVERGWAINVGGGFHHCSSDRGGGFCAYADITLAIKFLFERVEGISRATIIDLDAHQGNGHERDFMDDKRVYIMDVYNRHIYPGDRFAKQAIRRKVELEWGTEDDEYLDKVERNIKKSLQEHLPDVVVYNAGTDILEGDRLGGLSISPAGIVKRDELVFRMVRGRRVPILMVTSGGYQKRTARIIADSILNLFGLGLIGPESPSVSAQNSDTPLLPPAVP
Put plainly: HDAC11 inhibition assay. On the procedure:
(§1) Recombinant human HDAC1, HDAC2, and HDAC3/NCOR1 were purchased from ENZO Life Sciences AG (Lausen, CH). Recombinant human HDAC 4, HDAC5, HDAC7, HDAC9 and HDAC11 were produced by Barinka lab in Prague, as described before. Recombinant human HDAC8 was produced by Romier et al. (IGBMC, Univ. Strasbourg), as described in [55].
(§2) The determination of dose response curves for HDAC4, 5, 7 and 9 was performed as previously described with compound 4 as substrate (Abz-SRGGK(thio-TFA)FFRR-NH2). The substrate concentration was 50 µM and the enzyme concentration was 10 nM for HDAC4 and HDAC5, 5 nM for HDAC7 and 20 nM for HDAC9. HDAC11 inhibition assay was performed as described before. The fluorescence intensity was recorded with an Envision 2104 Multilabel Plate Reader (PerkinElmer, Waltham, MA) with an excitation wavelength of 330 ± 75 nm and an emission wavelength of 430 ± 8 nm.

Experiment [3] has as its target T3, human HDAC4 (Homo sapiens, UniProt P56524).
T3 construct: made in house
Kind of experiment: HDAC4 dose response, substrate Abz-SRGGK(thio-TFA)FFRR-NH2. On the procedure: as §1, §2

Experiment [4] addresses T4, human HDAC3/NCOR1 (Homo sapiens, UniProt O15379).
T4 construct: purchased ENZO Life Sciences AG (Lausen, CH)
Kind of experiment: In vitro HDAC3 inhibition assay, fluorogenic p53 peptide Ac-RHKK(Acetyl)-AMC. In a few lines: (§3)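 Enzymes (10 nM HDAC1, 3 nM HDAC2 or HDAC3) were preincubated with inhibitor for ≥5 min in HEPES buffer pH 7.4 at 37 °C. Reactions ran with 20 µM substrate for 90 min (HDAC1) or 30 min (HDAC2/3), then were developed with trypsin/SAHA for 1 h. IC50 was fitted from fluorescence normalised to uninhibited and no-enzyme controls.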

Experiment [5] addresses T5, human HDAC9 (Homo sapiens, UniProt Q9UKV0).
T5 construct: made in house
Put plainly: HDAC9 dose response, substrate Abz-SRGGK(thio-TFA)FFRR-NH2. Here is the method:
as §1, §2

In experiment [6] the target is T6, human HDAC2 (Homo sapiens, UniProt Q92769).
T6 construct: purchased ENZO Life Sciences AG (Lausen, CH)
T6 sequence (Q92769 whole entry): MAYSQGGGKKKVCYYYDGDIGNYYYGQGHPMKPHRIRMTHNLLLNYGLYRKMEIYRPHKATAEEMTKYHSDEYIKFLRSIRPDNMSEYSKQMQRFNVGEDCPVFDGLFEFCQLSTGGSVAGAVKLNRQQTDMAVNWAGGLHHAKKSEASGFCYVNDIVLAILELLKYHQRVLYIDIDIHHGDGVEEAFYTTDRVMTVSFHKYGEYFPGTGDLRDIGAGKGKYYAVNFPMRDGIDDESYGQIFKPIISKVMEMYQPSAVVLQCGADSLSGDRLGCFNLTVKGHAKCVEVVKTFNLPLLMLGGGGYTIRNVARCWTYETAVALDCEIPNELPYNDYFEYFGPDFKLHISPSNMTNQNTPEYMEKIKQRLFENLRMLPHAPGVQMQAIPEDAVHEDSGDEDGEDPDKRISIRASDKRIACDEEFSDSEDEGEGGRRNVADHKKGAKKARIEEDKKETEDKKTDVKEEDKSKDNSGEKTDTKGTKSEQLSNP
Kind of experiment: In vitro HDAC2 inhibition assay, fluorogenic p53 peptide Ac-RHKK(Acetyl)-AMC. Conditions: 3 nM HDAC2, 20 µM substrate, 30 min, 37 °C. An outline of the steps: as §3

For experiment [7], the target named is T7, human HDAC1 (Homo sapiens, UniProt Q13547).
T7 construct: purchased ENZO Life Sciences AG (Lausen, CH)
T7 sequence (Q13547 whole entry): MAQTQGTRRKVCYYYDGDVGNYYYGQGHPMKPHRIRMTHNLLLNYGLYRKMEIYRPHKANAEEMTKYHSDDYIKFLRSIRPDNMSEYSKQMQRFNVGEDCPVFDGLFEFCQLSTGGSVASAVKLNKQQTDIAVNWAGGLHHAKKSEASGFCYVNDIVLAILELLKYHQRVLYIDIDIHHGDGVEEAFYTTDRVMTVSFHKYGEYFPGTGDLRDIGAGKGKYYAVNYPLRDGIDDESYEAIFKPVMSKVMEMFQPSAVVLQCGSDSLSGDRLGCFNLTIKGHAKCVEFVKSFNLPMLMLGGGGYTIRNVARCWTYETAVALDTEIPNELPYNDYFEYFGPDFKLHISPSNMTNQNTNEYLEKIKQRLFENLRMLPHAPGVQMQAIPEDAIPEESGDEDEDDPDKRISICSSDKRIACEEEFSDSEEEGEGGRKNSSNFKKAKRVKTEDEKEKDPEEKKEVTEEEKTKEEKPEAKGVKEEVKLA
Put plainly: In vitro HDAC1 inhibition assay, fluorogenic p53 peptide Ac-RHKK(Acetyl)-AMC. The following applies: 10 nM HDAC1, 20 µM substrate, 90 min, 37 °C. An outline of the steps: as §3

The structures appear in SMILES notation.

T3 sequence (P56524 whole entry): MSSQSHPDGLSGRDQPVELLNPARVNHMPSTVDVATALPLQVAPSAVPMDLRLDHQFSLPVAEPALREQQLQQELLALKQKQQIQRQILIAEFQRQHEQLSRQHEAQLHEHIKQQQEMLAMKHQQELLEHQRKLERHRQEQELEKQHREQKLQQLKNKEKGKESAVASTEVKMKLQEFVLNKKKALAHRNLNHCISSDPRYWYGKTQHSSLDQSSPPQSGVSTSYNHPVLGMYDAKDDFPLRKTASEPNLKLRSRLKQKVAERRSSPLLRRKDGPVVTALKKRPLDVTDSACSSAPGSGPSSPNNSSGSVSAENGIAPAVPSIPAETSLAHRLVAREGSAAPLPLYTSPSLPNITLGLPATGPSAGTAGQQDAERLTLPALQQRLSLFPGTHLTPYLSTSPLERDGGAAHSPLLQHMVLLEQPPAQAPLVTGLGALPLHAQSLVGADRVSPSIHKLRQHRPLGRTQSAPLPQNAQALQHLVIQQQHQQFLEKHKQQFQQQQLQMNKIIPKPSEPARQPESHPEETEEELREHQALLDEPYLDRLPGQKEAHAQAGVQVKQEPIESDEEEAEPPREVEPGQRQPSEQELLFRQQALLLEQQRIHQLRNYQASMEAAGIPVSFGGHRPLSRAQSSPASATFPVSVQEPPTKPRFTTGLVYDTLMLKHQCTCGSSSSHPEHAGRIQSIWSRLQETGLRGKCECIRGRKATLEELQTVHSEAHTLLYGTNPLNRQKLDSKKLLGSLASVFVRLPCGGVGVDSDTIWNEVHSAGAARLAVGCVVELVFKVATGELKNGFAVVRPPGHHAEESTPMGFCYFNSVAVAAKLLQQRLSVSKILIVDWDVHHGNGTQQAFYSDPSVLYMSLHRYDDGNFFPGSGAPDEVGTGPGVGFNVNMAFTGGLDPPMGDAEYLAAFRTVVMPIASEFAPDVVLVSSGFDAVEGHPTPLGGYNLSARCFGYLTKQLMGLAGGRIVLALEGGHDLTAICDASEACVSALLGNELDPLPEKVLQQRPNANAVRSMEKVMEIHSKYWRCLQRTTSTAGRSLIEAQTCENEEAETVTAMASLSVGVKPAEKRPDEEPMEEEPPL
T4 sequence (O15379 whole entry): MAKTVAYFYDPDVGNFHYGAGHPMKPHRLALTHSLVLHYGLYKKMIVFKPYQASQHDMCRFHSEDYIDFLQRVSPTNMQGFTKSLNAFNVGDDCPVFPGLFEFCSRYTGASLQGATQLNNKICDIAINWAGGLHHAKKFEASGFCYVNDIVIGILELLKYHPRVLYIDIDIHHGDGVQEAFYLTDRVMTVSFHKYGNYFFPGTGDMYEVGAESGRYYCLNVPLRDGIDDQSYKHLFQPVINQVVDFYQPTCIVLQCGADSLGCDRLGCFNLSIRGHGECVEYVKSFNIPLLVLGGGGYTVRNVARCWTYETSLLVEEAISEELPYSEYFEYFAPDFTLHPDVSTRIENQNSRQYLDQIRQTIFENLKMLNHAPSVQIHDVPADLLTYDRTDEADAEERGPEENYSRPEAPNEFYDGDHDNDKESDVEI
T4 sequence (O75376 395-489 partner limits assumed): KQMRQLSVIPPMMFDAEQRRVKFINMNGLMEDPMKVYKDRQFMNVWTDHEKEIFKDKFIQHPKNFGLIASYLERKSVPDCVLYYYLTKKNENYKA
T5 sequence (Q9UKV0 whole entry): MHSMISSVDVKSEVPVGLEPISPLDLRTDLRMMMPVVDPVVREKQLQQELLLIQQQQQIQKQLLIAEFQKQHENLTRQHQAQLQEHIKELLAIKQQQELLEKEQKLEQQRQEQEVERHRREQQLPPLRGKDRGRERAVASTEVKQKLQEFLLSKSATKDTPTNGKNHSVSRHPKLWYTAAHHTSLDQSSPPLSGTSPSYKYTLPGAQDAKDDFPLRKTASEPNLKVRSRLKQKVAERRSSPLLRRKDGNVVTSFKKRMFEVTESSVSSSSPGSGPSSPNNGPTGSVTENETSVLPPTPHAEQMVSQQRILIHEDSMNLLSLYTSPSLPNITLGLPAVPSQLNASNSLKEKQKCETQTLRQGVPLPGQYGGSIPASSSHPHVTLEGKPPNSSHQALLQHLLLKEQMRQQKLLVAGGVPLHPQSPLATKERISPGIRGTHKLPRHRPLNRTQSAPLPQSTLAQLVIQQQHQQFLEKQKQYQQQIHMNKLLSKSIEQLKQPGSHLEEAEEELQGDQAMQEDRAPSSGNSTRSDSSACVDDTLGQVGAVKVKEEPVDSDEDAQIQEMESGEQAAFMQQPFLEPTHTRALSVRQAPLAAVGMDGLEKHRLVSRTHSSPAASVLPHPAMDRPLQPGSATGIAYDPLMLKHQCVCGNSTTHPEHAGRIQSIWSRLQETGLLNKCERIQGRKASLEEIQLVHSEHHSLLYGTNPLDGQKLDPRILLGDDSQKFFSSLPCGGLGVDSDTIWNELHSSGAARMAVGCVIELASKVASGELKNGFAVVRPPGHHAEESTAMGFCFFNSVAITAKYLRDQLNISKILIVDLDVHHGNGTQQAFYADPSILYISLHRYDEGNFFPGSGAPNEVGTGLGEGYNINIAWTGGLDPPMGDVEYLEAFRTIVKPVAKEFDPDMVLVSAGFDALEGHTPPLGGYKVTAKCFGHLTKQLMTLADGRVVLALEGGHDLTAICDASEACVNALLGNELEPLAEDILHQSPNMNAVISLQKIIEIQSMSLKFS

In the case of `Cn1cc(CCN2CCN(c3cnc(C(=O)Nc4cc(-c5cccs5)ccc4N)cn3)CC2)c2ccccc21` [21a, N-(2-Amino-5-(thiophen-2-yl)phenyl)-5-(4-(2-(1-methyl-1H-indol-3-yl)ethyl)piperazin-1-yl)pyrazine-2-carboxamide], the IC50 (in general, the concentration that gives 50% inhibition) in experiment [1] was greater than 20 µM; in experiment [2] it was 7.5 ± 1 µM; in experiment [3], greater than 20 µM; in experiment [5] it was greater than 20 µM; in experiment [6], 2.47 ± 0.22 µM; in experiment [7], 0.26 ± 0.01 µM. The inhibition (usually the percentage by which the read-out fell short of the control) at 1 µM in experiment [4] (read-out: HDAC3 % inhibition @ 1 µM) came out at 0%.

Take `Nc1ccccc1NC(=O)c1cnc(N2CCN(Cc3c[nH]c4ccccc34)CC2)cn1` [19f, 5-(4-((1H-indol-3-yl)methyl)piperazin-1-yl)-N-(2-aminophenyl)pyrazine-2-carboxamide]: the half-inhibitory concentration (IC50) was greater than 20 µM in experiment [1]; greater than 20 µM in experiment [2]; greater than 20 µM in experiment [3]; 0.31 ± 0.01 µM in experiment [4] (3 nM HDAC3, 20 µM substrate, 30 min, 37 °C); greater than 20 µM in experiment [5]; 0.28 ± 0.01 µM in experiment [6]. The midpoint of inhibition in experiment [7], the IC50, lay at 0.13 ± 0.01 µM.

(Values after paper PMC8745332, “Synthesis, Molecular Docking and Biological Characterization of Pyrazine Linked 2-Aminobenzamides as New Class I Selective Histone Deacetylase (HDAC) Inhibitors with Anti-Leukemic Activity” (International Journal of Molecular Sciences, 2021).)
